Assays:
[1] = tested on: Alternaria solani; assay: Alternaria solani (early blight of tomato/potato) in vitro test, radial growth on Potato Dextrose Agar; assay type: cell-based; details: 168 h, compared to the untreated check, radial growth after seven days, read-out: control
[2] = tested on: Fusarium culmorum; assay: Fusarium culmorum (foot rot of cereals) in vitro test, radial growth on Potato Dextrose Agar; assay type: cell-based; details: 168 h, 25° C., seven days, read-out: control compared to the untreated check (radial growth)
[3] = tested on: Corynespora cassicola; assay: Corynespora cassicola (leaf spot of tomato) in vitro test, radial growth on Potato Dextrose Agar; assay type: cell-based; details: 168 h, compared to the untreated check, radial growth after seven days, read-out: control
[4] = tested on: Botrytis cinerea; assay: Botrytis cinerea (gray mold) in vitro test, radial growth on Potato Dextrose Agar; assay type: cell-based; details: 168 h, compared to the untreated check, radial growth after seven days, read-out: control
[5] = tested on: Colletotrichum capsici; assay: Colletotrichum capsici (anthracnose) in vitro test, radial growth on Potato Dextrose Agar; details: Colletotrichum truncatum, 168 h, read-out: control
Description: Compounds were dissolved in 0.3% DMSO and then added to Potato Dextrose Agar medium just prior to dispensing it into petri dishes. 5 mL medium with compound in the desired concentration was dispensed into 60 mm sterile petri-plates. After solidification, each plate was seeded with a 5 mm size mycelial disc taken form the periphery of an actively growing virulent culture plate. Plates were incubated in growth chambers at 25° C. temperature and 60% relative humidity for seven days and radial growth was measured.

[6] = tested on: Rhizoctonia solani; assay: Rhizoctonia solani (rice sheath blight/potato black scurf) in vitro test, radial growth on Potato Dextrose Agar; assay type: cell-based; details: 168 h, compared to the untreated check, radial growth after seven days, read-out: control
[7] = tested on: Pyricularia oryzae; assay: microbe, parasite or virus in culture; assay type: cell-based; details: 168 h, read-out: control
[8] = tested on: Phakopsora pachyrhizi; assay: Phakopsora pachyrhizi test in soybean (greenhouse, preventive activity, disease severity rating); assay type: in vivo; details: preventive spray on soybean, compared to the untreated check
Summary of the method: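 Greenhouse-raised young soybean plants sprayed with compound at stated rates, then inoculated one day later with 2.1×10^6 P. pachyrhizi spores and held at 25° C, 90% RH. Disease severity (0-100%) rated visually 3, 7, 10 and 15 days after application; % control calculated versus untreated plants.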

CC(=O)N1CC[C@H](Oc2ccc(-c3noc(C(F)(F)F)n3)cc2F)C1 [Compound 69, (S)-1-(3-(2-fluoro-4-(5-(trifluoromethyl)-1,2,4-oxadiazol-3-yl)phenoxy)pyrrolidin-1-yl)ethan-1-one]
> 70%: inhibition of growth at 300 ppm [1] | inhibition of growth at 300 ppm [2] | inhibition of growth at 300 ppm [3] | inhibition of growth at 300 ppm [4] | inhibition of growth at 300 ppm [5] | inhibition of growth at 300 ppm [6] | inhibition of growth at 300 ppm [7]

O=C(c1ccncc1)N1CC[C@H](Oc2ccc(-c3noc(C(F)(F)F)n3)c(F)c2)C1 [Compound 66, (S)-(3-(3-fluoro-4-(5-(trifluoromethyl)-1,2,4-oxadiazol-3-yl)phenoxy)pyrrolidin-1-yl)(pyridin-4-yl)methanone]
> 70%: inhibition of growth at 300 ppm [1] | inhibition of growth at 300 ppm [2] | inhibition of growth at 300 ppm [3] | inhibition of growth at 300 ppm [4] | inhibition of growth at 300 ppm [5] | inhibition of growth at 300 ppm [6] | inhibition of growth at 300 ppm [7]

CC(=O)N1CC[C@H](Oc2ccc(-c3noc(C(F)(F)F)n3)cc2)C1 [Compound 2, (S)-1-(3-(4-(5-(trifluoromethyl)-1,2,4-oxadiazol-3-yl)phenoxy)pyrrolidin-1-yl)ethan-1-one]
> 70%: inhibition of growth at 300 ppm [1] | inhibition of growth at 300 ppm [2] | inhibition of growth at 300 ppm [3] | inhibition of growth at 300 ppm [4] | pest or weed control at 500 ppm [8] | inhibition of growth at 300 ppm [5] | inhibition of growth at 300 ppm [6] | inhibition of growth at 300 ppm [7]

CCC(=O)N1CC(N(C)c2ccc(-c3noc(C(F)(F)F)n3)cc2)C1 [Compound 100, 1-(3-(methyl(4-(5-(trifluoromethyl)-1,2,4-oxadiazol-3-yl)phenyl)amino)azetidin-1-yl)propan-1-one]
> 70%: inhibition of growth at 300 ppm [1] | inhibition of growth at 300 ppm [2] | inhibition of growth at 300 ppm [3] | inhibition of growth at 300 ppm [4] | pest or weed control at 500 ppm [8] | inhibition of growth at 300 ppm [5] | inhibition of growth at 300 ppm [6] | inhibition of growth at 300 ppm [7]

CC(=O)N1CC(N(C)c2ccc(-c3noc(C(F)(F)F)n3)cc2)C1 [Compound 89, 1-(3-(methyl(4-(5-(trifluoromethyl)-1,2,4-oxadiazol-3-yl)phenyl)amino)azetidin-1-yl)ethan-1-one]
> 70%: inhibition of growth at 300 ppm [1] | inhibition of growth at 300 ppm [2] | inhibition of growth at 300 ppm [3] | inhibition of growth at 300 ppm [4] | inhibition of growth at 300 ppm [5] | inhibition of growth at 300 ppm [6] | inhibition of growth at 300 ppm [7]

Reference: patent US20210392895A1, “NOVEL OXADIAZOLES” (PI INDUSTRIES LIMITED, priority 2018, published 2021)
